Usually melting point stands for the temperature of the solid-liquid transition. For orientation: solubility means the dissolved amount per volume that the medium holds. A higher solubility goes with much dissolved substance. The term IC50 denotes the midpoint of a concentration-inhibition curve.

In brackets after ≈: the same amount, converted by molar mass.

We go through five compounds from US8461166B2, “Polyalkylene glycol derivatives of inhibitors of epidermal growth factor receptor tyrosine kinase” (Hadasit Medical Research Services and Development Ltd., priority 2005, dated 2013).

One data set addresses T1, EGFR (Homo sapiens, UniProt P00533).
T1 construct: endogenous in cells; host or cells: A431 human epidermoid vulval carcinoma cells
In words: Irreversibility test protocol: EGFR autophosphorylation inhibition in intact A431 cells (Western blot). It counts as cell-based. As to conditions: for irreversible inhibitory characteristic (irreversible binding to EGFR): A431 cells, EGF stimulation 8 hours after removal of the inhibitor vs immediately after. The method, then: Irreversibility Test Protocol: The inhibitory potency of compounds 1a-c, as well as the irreversible nature of EGFR inhibition thereof were evaluated in intact A431 cells, according to published procedures (Smail et al., 1999). In brief, A431 human epidermoid vulval carcinoma were grown in six-well plates for 48 hours and further maintained in serum-free media for additional 18 hours. Duplicate sets of cells were incubated with increasing concentrations of the tested inhibitor for one hour. One set of the cells was thereafter stimulated with EGF, immediately after removal of the tested inhibitor. Another set of the cells was washed to remove the inhibitor, and EGF stimulation was carried out 8 hours after removal of the inhibitor from the medium. Cell lysates were prepared and loaded onto SDS-PAGE (8% acryl amide) for Western Blot analysis, and the extent of EGFR phosphorylation was evaluated by measuring the signal intensity of the corresponding phosphotyrosine band using a mix of anti-phosphotyrosine antibodies, PY20 (Santa Cruz Biotechnology Inc.) and 4G10 (produced from Su4G10 hybridoma cells). The degree of EGFR phosphorylation was measured for each set of cells and the IC50 values of Compounds 1a-c and 10b, vis-à-vis the level of EGFR's phosphotyrosine content were determined. A minimum of two different assays with similar results were considered. Each experiment was performed in duplicates.
The inhibitory potency of exemplary compounds according to the present embodiments, as well as the extent of their irreversible inhibition of the EGFR were first evaluated in intact A431 cells, using the protocol described hereinabove. The IC50 values were determined by the extent of EGFR phosphorylation at each inhibitor concentration either immediately after or 8 hours post removal of the tested inhibitor from the medium.
(In general: A western blot detects proteins with antibodies after separation by electrophoresis.)

Data set [1] in a line: Partition coefficient determination (1-octanol/buffer, HPLC). It counts as physicochemical. As to conditions: 1-octanol / sodium phosphate buffer 0.1 M, pH 7.4; read-out: Log P (partition coefficient). The method, then: Partition coefficient determination: Compounds 1a-c and 10b, ML04 and ML05 (3 mg) were dissolved in sodium phosphate buffer (0.1 M, pH 7.4, 5 ml) and 1-octanol (1 ml) and the resulting mixture was vortexed for 2 minutes, filtered, and maintained at room temperature for 10 minutes. The reaction mixture was then centrifuged at 4000 g for 10 minutes. Fifty (50) μl portions were taken from the organic (1-octanol) and from the aqueous (buffer) layers, and were dissolved in 0.45 ml acetonitrile. The samples were analyzed by HPLC system (C-18 analytical column, a mixture of 55% acetonitrile:45% acetate buffer 0.1 M, pH 3.8 as a mobile phase, flow rate of 1 ml/minute). The partition coefficients (Log P) were determined by the concentration ratio of the tested compound in the organic phase and the aqueous phase. Measurements were performed in triplicate.

A short description of data set [2]: Water solubility determination (HPLC). As to conditions: aqueous buffer, thermodynamic from solid; MOPS buffer pH 7.4, room temperature. Type of data set: physicochemical. Here is the method: DMSO (1 ml) and MOPS buffer pH 7.4 (1 ml) were separately added to test tubes containing the tested compound (Compounds 1a-c and 10b, ML04 or ML05), such that for each compound, two test tubes were prepared. The tubes were sonicated at room temperature for 20 minute, left intact for 10 minutes, and were then filtered through a 0.45 μm filter. Each of the DMSO solutions was diluted 10-folds with DMSO. A 50 μl sample of each solution was analyzed by HPLC (using C-18 analytical column, a mixture of 55% CH3CN:45% acetate buffer 0.1 M, pH 3.8, as a mobile phase at a flow rate of 1 ml/minute, and a UV detector operated at 254 nm). Measurements were performed in triplicate.

T1 sequence (P00533 25-1210): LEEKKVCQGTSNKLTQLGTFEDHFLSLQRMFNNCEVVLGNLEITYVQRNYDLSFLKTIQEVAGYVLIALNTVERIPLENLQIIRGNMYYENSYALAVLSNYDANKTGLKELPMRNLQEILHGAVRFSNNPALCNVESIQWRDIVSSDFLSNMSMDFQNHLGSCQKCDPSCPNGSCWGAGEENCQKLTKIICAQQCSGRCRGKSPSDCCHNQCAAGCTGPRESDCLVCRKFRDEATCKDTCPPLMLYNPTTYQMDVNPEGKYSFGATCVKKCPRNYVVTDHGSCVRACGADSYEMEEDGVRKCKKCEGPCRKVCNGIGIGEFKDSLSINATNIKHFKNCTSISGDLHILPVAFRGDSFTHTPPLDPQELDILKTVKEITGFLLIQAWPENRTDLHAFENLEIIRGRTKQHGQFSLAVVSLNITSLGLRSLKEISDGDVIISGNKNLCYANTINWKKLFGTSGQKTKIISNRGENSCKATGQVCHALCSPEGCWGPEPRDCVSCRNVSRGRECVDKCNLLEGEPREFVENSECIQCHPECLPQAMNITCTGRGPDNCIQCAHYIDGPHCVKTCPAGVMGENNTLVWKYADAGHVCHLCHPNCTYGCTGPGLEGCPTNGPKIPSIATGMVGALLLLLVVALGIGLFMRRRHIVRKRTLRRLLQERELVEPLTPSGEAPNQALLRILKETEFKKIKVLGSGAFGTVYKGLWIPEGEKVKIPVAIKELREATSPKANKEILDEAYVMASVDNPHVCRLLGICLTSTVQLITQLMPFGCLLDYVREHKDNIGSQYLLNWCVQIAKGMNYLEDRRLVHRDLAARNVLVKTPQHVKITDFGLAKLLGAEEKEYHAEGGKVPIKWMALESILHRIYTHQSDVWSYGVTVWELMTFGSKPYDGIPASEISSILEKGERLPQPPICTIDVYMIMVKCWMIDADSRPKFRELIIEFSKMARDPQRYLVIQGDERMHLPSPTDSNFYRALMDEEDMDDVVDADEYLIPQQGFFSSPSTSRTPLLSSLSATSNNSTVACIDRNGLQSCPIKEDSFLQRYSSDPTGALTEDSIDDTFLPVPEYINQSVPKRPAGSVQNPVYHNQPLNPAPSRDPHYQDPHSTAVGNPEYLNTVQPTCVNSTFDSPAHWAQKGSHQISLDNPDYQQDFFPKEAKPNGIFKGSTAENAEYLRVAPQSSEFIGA

Consider `O=C(CCl)Nc1cc2c(Nc3cc(Cl)c(Cl)cc3F)ncnc2cc1OCCOCCOCCOCCOCCOCCF` [Compound 1c, 2-Chloro-N-(4-(4,5-Dichloro-2-fluoro-phenylamino)-7-{2-[2-(2-{2-[2-(2-fluoro-ethoxy)-ethoxy]-ethoxy}-ethoxy)-ethoxy]-ethoxy}-quinazoline-6-yl)-acetamide], for which the “irreversible inhibitory characteristic (irreversible binding to EGFR)” value on EGFR was “irreversibly bind to the EGFR”.
For the compound `O=C(CCl)Nc1cc2c(Nc3cc(Cl)c(Cl)cc3F)ncnc2cc1OCCOCCF` [Compound 1a, 2-Chloro-N-{4-(4,5-Dichloro-2-fluoro-phenylamino)-7-[2-(2-fluoro-ethoxy)-ethoxy]-quinazoline-6-yl}-acetamide], the melting point was 167 to 169 °C. For the same compound, the “irreversible inhibitory characteristic (irreversible binding to EGFR)” value at EGFR is on record as “irreversibly bind to the EGFR”.
`CN(C)CC=CC(=O)Nc1ccc2ncnc(Nc3cc(Cl)c(Cl)cc3F)c2c1` [ML04, 4-dimethylamino-but-2-enoic acid [4-(3,4-dichloro-6-fluoro-phenylamino)-quinazoline-6-yl]-amide, reference compound]: the logP in data set [1] came to 3.9. The solubility at 20 min in data set [2] was determined as 0.14 µg/mL (≈ 0.322 µM).
Consider `CN(C)CC=CC(=O)Nc1cc2c(Nc3cc(Cl)c(Cl)cc3F)ncnc2cc1OCCOCCOCCOCCF` [Compound 10b, 4-dimethylamino-but-2-enoic acid {4-(4,5-Dichloro-2-fluoro-phenylamino)-7-(2-{2-[2-(2-fluoro-ethoxy)-ethoxy]-ethoxy}-ethoxy)-quinazoline-6-yl}-amide], for which, in data set [1], the logP is 3.7. The “irreversible inhibitory characteristic (irreversible binding to EGFR)” value at EGFR is on record as “irreversible inhibitory characteristic”. On EGFR (intact A431 cells, 1 hour incubation with inhibitor, EGF stimulation, read-out: IC50 vis-à-vis the level of EGFR's phosphotyrosine content), the IC50 came out at 5 nM. This compound also returned a solubility at 20 min in data set [2] of 3.5 µg/mL (≈ 5.57 µM).
In turn, `O=C(CCl)Nc1cc2c(Nc3cc(Cl)c(Cl)cc3F)ncnc2cc1OCCOCCOCCOCCF` [Compound 1b, 2-Chloro-N-[4-(4,5-Dichloro-2-fluoro-phenylamino)-7-(2-{2-[2-(2-fluoro-ethoxy)-ethoxy]-ethoxy}-ethoxy)-quinazoline-6-yl]-acetamide] showed a melting point of 135 to 137 °C. In addition, the “irreversible inhibitory characteristic (irreversible binding to EGFR)” value on EGFR was “irreversibly bind to the EGFR”.
